Two compounds from patent US20030206968A1, “Fungicidal mixtures” (priority 1999, published 2003) can be followed below.

Holding throughout (assay type): in vivo
For one experiment, the system named is Pyrenophora teres. Description: Greenhouse, Pyrenophora teres on barley, 1 day residual. To be noted: Example 10. How it is done:
(§1) The trials are carried out under greenhouse (Examples 1 to 32) or field conditions (Examples 33 to 40) in residual or curative applications. The fungicides are applied in single treatments, or in a combination comprising an azolopyrimidine of formula I and a compound selected from the classes (A), (B) and (C) as defined above. The compounds are applied in form of an aqueous spray mix obtained from a concentrated formulation or the technical material.
(§2) 1. Seed is planted in 6 cm diameter plastic pots and maintained in the greenhouse.
(§3) 2. When the primary leaf is fully expanded in the case of cereals or several leaves are present in the case of dicots, formulated test compounds are sprayed with a three nozzle overhead fungicide sprayer to near run-off. Alternatively, a single nozzle overhead track sprayer is used for application of the compounds to cereals at a rate of 200 l/ha. Plants are then allowed to air-dry.
(§4) 3. Inoculation precedes treatment in the case of curative evaluations and follows treatment in case of residual evaluations. For inoculation of powdery mildew disease, plants are set up on greenhouse benches with bottom watering mats and inoculated by dusting them with conidia from infected plants. Between inoculation and treatment for curative evaluations and between treatment and inoculation for residual evaluations, plants are maintained in the greenhouse with bottom watering.
(§5) For inoculation of non-powdery mildew diseases, an aqueous spore suspension of the pathogen is applied to the plant and the plants are kept 1-2 days in a moist infection chamber before being returned to the greenhouse where they are maintained by bottom watering.
(§6) 4. Disease on the foliage as percent leaf area with disease symptoms/signs is evaluated about 7 days after inoculation. In the case of wheat, the tips and bases of the leaves are excluded from the evaluation. [formula]
(§7) 1. Technical compounds are formulated in a solvent/surfactant system consisting of 5% acetone and 0.05% Tween 20 in deionized water. Compounds are dissolved in acetone prior to addition of the water; the Tween 20 can be added through either the acetone or the water. Dilutions are made using the solvent/surfactant system. Formulated compounds are prepared using deionized water.
(§8) 2. Two kinds of controls are included: Plants treated with the solvent/surfactant solution and inoculated (Solvent Blank). Untreated plants which are inoculated (Inoculated Control).
(§9) Assessments of the diseases took place at the indicated day after the application of the compounds. Per cent infected leaf area infected was evaluated. The efficacy of the compounds/compounds mixtures to control the diseases was calculated by using the formula given above under item 4: […]
(§10) Synergy was calculated using the % disease control values of specific treatments for the two COLBY formula given hereinabove
Fungicidal efficacy of the mixture of Azolopyrimidine C+metconazole (1 day residual) against Pyrenophora teres on barley The tank mix was obtained from a SC formulation containing 100 g Azolopyrimidine C per liter and an EC containing 100 g metconazole per liter.

In another experiment the test system is Alternaria solani. Description: Greenhouse, Alternaria solani on tomatoes, 1 day residual. Conditions: Example 25; rate 4 g/ha. How it is done:
as §1, §2, §3, §4, §5, §6, §7, §8, §9, §10
Fungicidal efficacy of the mixture of Azolopyrimidine C and different fungicides (1 day residual) against Alternaria solani on tomatoes The tank mix was obtained from an SC formulation containing 100 g Azolopyrimidine A per liter and WP formulations of dithianon (750 g/kg), captan (500 g/kg), cyprodinil (750 g/kg), mancozeb (800 g/kg), or a SC formulation of chlorothalonil (500 g/l), or a FS formulation of fenpiclonil (400 g/l), spectively.

For another experiment, the system named is Rhynchosporium secalis. Put plainly: Greenhouse, Rhynchosporium secalis on barley, 1 day residual. Conditions: Example 8; dose rate 100 ppm. How it is done:
as §1, §2
2. When the primary leaf is fully expanded in the case of cereals or several leaves are present in the case of dicots, formulated test compounds are sprayed with a three nozzle overhead fungicide sprayer to near run-off. […]
4. Disease on the foliage as percent leaf area with disease symptoms/signs is evaluated about 7 days after inoculation. […]
as §9
Synergy was calculated using the % disease control values of specific treatments for the two COLBY formula given hereinabove […]

The test system of the next experiment is Erysiphe cichoracearum. Description: Greenhouse, Erysiphe cichoracearum on cucumbers, 1 day residual. How it is done:
as §1, §2, §3, §4, §6, §7, §8, §9, §10
Fungicidal efficacy of the mixture of Azolopyrimidine C+triforine (1 day residual) against Erysiphe cichoracearum on cucumbers
the tank mix was obtained from a SC formulation containing 100 g of Azolopyrimidine C per liter and an DC formulation containing and 190 g of triforine per liter.
Fungicidal efficacy of the mixture of Azolopyrimidine C+cyprodinil (1 day residual) against Erysiphe cichoracearum on cucumbers The tank mix was obtained from a SC formulation containing 100 g of Azolopyrimidine C per liter and a WG formulation containing and 750 g of cyprodinil per kg.

Experiment [1] relates to Puccinia recondita. Description: Greenhouse, Puccinia recondita on wheat, 2 days curative. Conditions: Example 28. How it is done: as §1, §2, §3, §4, §5, §6, §7, §8, §9, §10
Fungicidal efficacy of the mixture of (S)-Azolopyrimidine C in admixture with Azoxystrobin or Trifloxystrobin (2 days curative) against Puccinia recondita on wheat. The tank mixes were obtained from technical material of (S)-Azolopyrimidine C and Azoxystrobin or Trifloxystrobin.

The next experiment deals with Blumeria graminis. Description: Field test, Blumeria graminis on wheat. Conditions: 17 days after application. In outline:
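Field trial on wheat: formulated products (SC/EC tank mixes, alone or in mixtures) sprayed as aqueous mix at 400 l/ha by good agricultural practice. Percent infected leaf area assessed 15 or 17 days after application; efficacy calculated as disease control, with synergy judged by the Colby formula.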

The subject of experiment [2] is Puccinia recondita. Description: Greenhouse, Puccinia recondita on wheat, 4 days residual. Conditions: Example 31. How it is done: as §1, §2, §3, §4, §5, §6, §7, §8, §9, §10
Fungicidal efficacy of the mixture of (S)-Azolopyrimidine C in admixture with Azoxystrobin or Trifloxystrobin (4 days residual) against Puccinia recondita on wheat. The tank mixes were obtained from technical material of (S)-Azolopyrimidine C and Azoxystrobin or Trifloxystrobin.

For the compound `CC(Nc1c(-c2c(F)cc(F)cc2F)c(Cl)nc2ncnn12)C(F)(F)F` (stereo not shown) [Azolopyrimidine C, 5-chloro-6-(2,4,6-trifluorophenyl)-7-(1,1,1-trifluoroprop-2-ylamino)-[1,2,4]triazolo[1,5-a]pyrimidine], the “Observed Efficacy” value in the experiment on Pyrenophora teres (dose rate 10 ppm) turned out to be 0%; with Pyrenophora teres (dose rate 25 ppm), 0%; with Pyrenophora teres (dose rate 40 ppm) it was 0%; in the experiment on Pyrenophora teres (dose rate 50 ppm), 0%; with Pyrenophora teres (dose rate 125 ppm) it was 0%; with Alternaria solani, 25%. In addition, the “Observed Efficacy” value is listed as 15% with Rhynchosporium secalis; 0% with Erysiphe cichoracearum (Example 23, dose rate 1 ppm); 7% with Erysiphe cichoracearum (Example 23, dose rate 4 ppm); 0% in the experiment with Erysiphe cichoracearum (Example 24, dose rate 1 ppm); 7% in the experiment with Erysiphe cichoracearum (Example 24, dose rate 4 ppm).
For “5-chloro-6-(2,4,6-trifluorophenyl)-7-(1,1,1-trifluoroprop-2-ylamino)-[1,2,4]triazolo[1,5-a]pyrimidine [(S)-Azolopyrimidine C]”, the “Observed Efficacy” value is 0% in the experiment on Puccinia recondita [1] (dose rate 1.6 ppm); 0% with Puccinia recondita [1] (dose rate 3.1 ppm); 8% in the experiment on Puccinia recondita [1] (dose rate 6.3 ppm); 23% in the experiment with Puccinia recondita [1] (dose rate 12.5 ppm); 54% in the experiment on Puccinia recondita [1] (dose rate 25 ppm); 63 in the experiment on Blumeria graminis (Table XXXVI, (S)-Azolopyrimidine C 25 g/ha alone). For the same compound, the “Observed Efficacy” value with Blumeria graminis (Table XXXVI, (S)-Azolopyrimidine C 50 g/ha alone) came out at 78; in the experiment on Blumeria graminis (Table XXXVI, (S)-Azolopyrimidine C 75 g/ha alone) it was 74; with Blumeria graminis (Table XXXVII, (S)-Azolopyrimidine C 25 g/ha alone), 63; with Blumeria graminis (Table XXXVII, (S)-Azolopyrimidine C 50 g/ha alone) it was 78; in the experiment on Blumeria graminis (Table XXXVII, (S)-Azolopyrimidine C 75 g/ha alone) it was 74; with Blumeria graminis (Table XXXVII, (S)-Azolopyrimidine C 100 g/ha alone), 96. For the same compound, the “Observed Efficacy” value with Puccinia recondita [2] (dose rate 3.1 ppm) amounted to 0%; with Puccinia recondita [2] (dose rate 6.3 ppm) it was 9%; in the experiment with Puccinia recondita [2] (dose rate 12.5 ppm), 16%; in the experiment with Puccinia recondita [2] (dose rate 25 ppm), 27%; in the experiment on Puccinia recondita [2] (dose rate 50 ppm), 50%.
